≈ marks a conversion by molar mass, not a printed value. Where “and” joins values, the source holds several entries; their conditions need not be identical. Identical values can stand only once. Like-named read-outs stand apart in the source and are kept apart here. {LC640} = LightCycler Red 640 dye label (LCRED640); {FL} = fluorescein label (FL); {P} = phosphate
What was measured:
Salmonella strains = test: Minimum inhibitory concentration (MIC) of quinolone antibacterials by E-test strips; assay type: cell-based, Salmonella spp.; settings: for MIC: Salmonella
Experimental: The minimum inhibitory concentration was deterrnined by the E-test strips of quinolone antibacterials (AB BIODISC North America Inc., Solna, Sweden). The bacterial strain to be tested was streak plated on xylose lysin desoxycholate agar (XLD) (Merck kGaA, Darmstadt, Germany). After the purity of said strain was verified, the strain was grown on tryptic soy agar (TSA) medium (Merck kGaA, Darrnstadt, Germany) at 35-37° C. for 16-18 hours and then suspended in sterile water. The bacterial concentration was adjusted to 80% of turbidity (corresponding to 0.5 MacFarland turbidity standard, and the bacterial content is approximately […]) using Vitek Special DR 100 Colorimeter (HACH Company, Colorado, USA). Then, 0.1 ml of the bacterial aliquot was placed on the prepared Mueller-Hinton (M-H) agar medium (having the diameter of 9 cm and the thickness of 4.0±0.5 mm) (Merck kGaA, Darmstadt, Germany) and the aliquot was spread evenly on the medium by a sterilized glass rod. The medium plate stood still for 10 to 15 minutes to ensure that the bacterial aliquot completely penetrated into the medium. Thereafter, a sterilized tweezer was used to clip the E region of the E-test antibacterial test strip which was then placed on the inoculated M-H medium plate. Two E-test trips were placed parallel to each other and symmetrically on each medium plate. Said medium plates were then incubated at 35-37° C. for 16-18 hours. The results were determined based on the standards from National Committee for Clinical Laboratory Standard (NCCLS, 2001), USA. Each antibacterial agent was tested in a duplicate experiment, and E. coli ATCC 25922/CCRC 11509 was used as the control of the tested strains in each experiment.

[1] = test system: single-stranded PCR products of Salmonella gyrA gene; test: Real-time PCR with melting curve analysis of gyrA4 hybridization probes; assay type: binding, Salmonella spp.
Experimental: (§1) The bacterial strain to be tested was streak plated on XLD medium. After the purity of said strain was verified, the strain was grown in TSB broth at 35±1° C. for 18±2 hours. Following refrigerated centrifugation, Wizard® Genomic DNA Purification Kit was used to extract the genomic DNA. One microliter of the DNA extraction solution was added to the reaction mix (containing 0.5 μM primer set, 0.2 μM probe set, 4 mM MgCl2, and 1×LightCycler DNA Master hybridization mix) to a final volume of 20 μl, which was then placed in LightCycler (Roche Applied Science, Mannheim, Germany) for amplification and melting reaction of the hybrid of the PCR product with the hybridization probes.

[2] = test system: single-stranded PCR products of parC gene; test: Real-time PCR with melting curve analysis of parC238 hybridization probes; assay type: binding, Salmonella spp.
Experimental: as §1

[3] = Table 4, gyrA single point mutation strains (52)

## O=C(O)c1cn(C2CC2)c2cc(N3CCNCC3)c(F)cc2c1=O [ciprofloxacin]
Salmonella strains; Mutant strains (75)
  Susceptibility Cp: S/R
Salmonella strains; Table 4, Wild type strains
  Susceptibility: S
Salmonella strains; [3]
  Susceptibility: S
Salmonella strains; Wild type strains (45)
  Susceptibility Cp: S (S, susceptibility, MICs 0.006-0.38 μg/ml)
Salmonella strains; parC mutant (A238C) strains (23)
  Ciprofloxacin susceptibility: Resistant
Salmonella strains; parC wild type strains (97)
  Ciprofloxacin susceptibility: Sensitive
Salmonella strains; {}
  Susceptibility: S

## CCn1cc(C(=O)O)c(=O)c2ccc(C)nc21 [nalidixic acid]
Salmonella strains; 120 strains from animal foods and clinical samples
  share of the 120 Salmonella strains tested that were resistant: 62.5%
Salmonella strains; read-out: MICs, resistant strains (gyrA mutants)
  MIC: ≥ 256 µg/mL
Salmonella strains; susceptible strains (wild type), read-out: MICs
  MIC: 2.5 to 7 µg/mL (≈ 10.8 to 30.1 µM)
Salmonella strains; Table 4, Wild type strains
  Susceptibility: S
Salmonella strains; [3]
  Susceptibility: R
Salmonella strains; Wild type strains (45)
  Susceptibility NA: S (S, susceptibility, MICs 2.5˜7 μg/ml)
Salmonella strains; {}
  Susceptibility: R
  Susceptibility NA: R (R, resistance, MICs ≧ 256 μg/ml)

## gyrA4: hybridization probe set of gyrA4-FL (SEQ ID NO: 5) and gyrA4-LC640 (SEQ ID NO: 6) (DNA 1 CGATTCCGCAGTGTATGACACC; DNA 2 CGTTCGTATGGCGCAGCCATTCTCG; DNA 1: DNA, 3' {FL}, backbone not given here; DNA 2: DNA, 5' {LC640}, 3' {P}, backbone not given here; listed as Salmonella sp.)
[1]; C248A mutant strains
  Tm ± SD (CV %): 58.6±0.3 °C and 58.6 ± 0.3 (0.51) ° C.
[1]; C248T mutant strains
  Tm ± SD (CV %): 59.1±0.2 °C and 59.1 ± 0.2 (0.40) ° C.
[1]; G259A mutant strains
  Tm ± SD (CV %): 59.8±0.4 °C and 59.8 ± 0.4 (0.60) ° C.
[1]; G259T mutant strains
  Tm ± SD (CV %): 59.6±0.4 °C and 59.6 ± 0.4 (0.68) ° C.
[1]; Wild type strains
  Tm ± SD (CV %): 63.6±1.0 °C and 63.6 ± 1.0 (1.62) ° C.
[1]; double point mutation C248T/A260G strains
  Tm ± SD (CV %): 54.6±0.2 °C and 54.6 ± 0.2 (0.27) ° C.
[1]; single point mutation strains (C248A, C248T, G259A, G259T)
  Tm ± SD (CV %): 59.2±0.5 °C and 59.2 ± 0.5 (0.89) ° C.

## parC238: hybridization probe set of parC238-FL (SEQ ID NO: 7) and parC238-LC640 (SEQ ID NO: 8) (DNA 1 CGACCGCGCCTGCT; DNA 2 GAAGCCATGGTGCTGATGGCG; DNA 1: DNA, 3' {FL}, backbone not given here; DNA 2: DNA, 5' {LC640}, 3' {P}, backbone not given here; listed as Salmonella sp.)
[2]; parC mutant (A238C) strains
  Tm ± SD (CV %): 61.4±0.3 °C
[2]; parC wild type strains
  Tm ± SD (CV %): 47.4±0.5 °C

From patent US20070031889A1, “Method for rapidly detecting quinolone-resistant Salmonella ssp. and the probes and primers utilized therein” (Bureau of Food and Drug Analysis, Department of Health, …, priority 2004, published 2007)
